Source: PMC3688631 (ACS medicinal chemistry letters, 2013)

What was measured:
[1] = system: Akt phosphorylation in MDA-MB-468; experiment: Cellular inhibition of Akt phosphorylation; type: cell-based; settings: Homo sapiens, MDA-MB-468, read-out: inhibition of Akt phosphorylation IC50
96 kinases = experiment: KinomeScan screen versus another 96 kinases; type: binding
PI3Kβ D862Q = PI3Kβ D862Q (Homo sapiens, UniProt P42338, D862Q); settings: cited from earlier work
Chain of PI3Kβ D862Q (P42338 whole entry D862Q): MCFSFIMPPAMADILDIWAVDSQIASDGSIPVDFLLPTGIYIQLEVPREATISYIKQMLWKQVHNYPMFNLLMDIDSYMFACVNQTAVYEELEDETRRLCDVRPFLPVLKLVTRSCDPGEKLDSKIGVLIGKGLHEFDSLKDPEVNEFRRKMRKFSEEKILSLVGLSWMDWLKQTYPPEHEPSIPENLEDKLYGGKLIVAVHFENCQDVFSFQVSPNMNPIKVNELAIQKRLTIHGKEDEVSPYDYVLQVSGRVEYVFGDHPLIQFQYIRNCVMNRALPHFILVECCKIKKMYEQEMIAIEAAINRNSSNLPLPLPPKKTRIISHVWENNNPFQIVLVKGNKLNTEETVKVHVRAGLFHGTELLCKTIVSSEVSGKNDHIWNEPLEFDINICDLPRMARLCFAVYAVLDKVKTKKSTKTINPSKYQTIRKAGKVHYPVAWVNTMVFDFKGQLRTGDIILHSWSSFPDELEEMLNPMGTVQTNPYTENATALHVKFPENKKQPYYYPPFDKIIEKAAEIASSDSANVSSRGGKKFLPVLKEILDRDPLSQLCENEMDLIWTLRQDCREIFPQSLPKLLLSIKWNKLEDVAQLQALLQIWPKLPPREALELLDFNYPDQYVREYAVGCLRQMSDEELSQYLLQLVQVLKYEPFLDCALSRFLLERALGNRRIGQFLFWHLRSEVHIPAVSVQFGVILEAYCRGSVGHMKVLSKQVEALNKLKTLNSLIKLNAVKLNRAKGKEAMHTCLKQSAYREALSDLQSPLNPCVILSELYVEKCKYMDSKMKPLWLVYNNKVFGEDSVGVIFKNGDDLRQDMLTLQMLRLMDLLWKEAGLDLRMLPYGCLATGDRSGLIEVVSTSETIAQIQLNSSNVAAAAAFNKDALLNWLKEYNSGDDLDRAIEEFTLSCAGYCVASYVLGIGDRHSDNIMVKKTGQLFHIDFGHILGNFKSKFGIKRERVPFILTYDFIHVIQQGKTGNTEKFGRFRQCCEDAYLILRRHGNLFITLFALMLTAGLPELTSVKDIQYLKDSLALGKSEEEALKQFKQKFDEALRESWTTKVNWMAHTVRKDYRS
Chain of PI3Kβ D862Q (P27986 whole entry partner): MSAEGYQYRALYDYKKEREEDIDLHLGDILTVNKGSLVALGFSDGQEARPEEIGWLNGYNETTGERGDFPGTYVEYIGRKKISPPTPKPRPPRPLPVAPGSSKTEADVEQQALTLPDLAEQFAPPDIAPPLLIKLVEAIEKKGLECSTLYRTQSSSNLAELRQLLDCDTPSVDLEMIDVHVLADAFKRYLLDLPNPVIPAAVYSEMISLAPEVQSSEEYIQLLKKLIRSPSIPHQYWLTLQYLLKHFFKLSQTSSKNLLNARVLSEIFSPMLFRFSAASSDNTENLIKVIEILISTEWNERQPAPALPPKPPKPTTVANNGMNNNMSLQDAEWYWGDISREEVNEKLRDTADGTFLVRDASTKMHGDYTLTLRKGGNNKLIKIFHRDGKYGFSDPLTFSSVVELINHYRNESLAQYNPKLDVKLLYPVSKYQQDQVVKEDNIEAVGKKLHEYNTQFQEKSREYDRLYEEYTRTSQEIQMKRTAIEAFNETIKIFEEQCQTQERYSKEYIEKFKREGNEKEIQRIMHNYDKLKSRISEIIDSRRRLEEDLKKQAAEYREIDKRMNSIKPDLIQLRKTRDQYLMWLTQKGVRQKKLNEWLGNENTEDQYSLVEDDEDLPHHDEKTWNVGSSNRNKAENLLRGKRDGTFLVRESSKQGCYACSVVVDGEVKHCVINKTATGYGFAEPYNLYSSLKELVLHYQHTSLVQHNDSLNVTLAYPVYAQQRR

Row | Structure (SMILES) | IC50 [1] | KinomeScan binding affinity versus another 96 kinases (96 kinases) | effect of mutation D862Q in PI3Kβ on inhibition (PI3Kβ D862Q)
1 | N[C@@H](Cc1ccccc1)C(=O)N1CCN(c2nc(N3CCOCC3)nc(-n3c(C(F)F)nc4ccccc43)n2)CC1 [Compound 21] | < 10 nM | only the class II PI3K PI3KC2β showed binding affinity comparable to that seen for PI3Kβ | 
2 | Cc1cc(C(C)Nc2ccccc2)c2nc(N3CCOCC3)cc(=O)n2c1 (stereo not drawn) [TGX221] |  |  | unaffected
